Source: patent US20240215910A1, “A METHOD FOR […] PRO-OR ANTI […] TEST COMPOUNDS” (GW Research Limited, priority 2020, published 2024)

Assays:
[1] = system: tonic hind limb extensor convulsion from a single electroshock; test: mini-MEST: maximal electroshock seizure threshold test using minimal sample sizes (n=6/group, log-scale current steps); settings: for % change from vehicle / CC50 ± SEM: N=6
Description: (§1) All animals were weighed at the beginning of the study and assigned to treatment groups (n=6/group) based on a mean distribution of body weight across groups.
(§2) The first animal within a treatment group was given a shock at the expected or estimated CC50 current. For subsequent animals, the current was lowered or raised depending on the convulsion outcome from the preceding animal in log scale intervals. Data generated from each treatment group were used to calculate the CC50±SEM values for the treatment group (see Table 5 for details).
as §1
as §2, with “Table 10” for “Table 5”
as §1
as §2, with “Table 15” for “Table 5”

[2] = system: tonic hind limb extensor convulsion from a single electroshock; mouse model of generalised seizure; test: standard maximal electroshock seizure threshold (MEST) test (n=12/group, 5 mA intervals); settings: Example 4, 30 min post dose; for CC50 +/− SEM: vehicle CC50 24.3
Protocol: The efficacy of Compound 3 was tested in a mouse model of generalised seizure, the maximal electroshock seizure threshold (MEST) test.
All animals were weighed at the beginning of the study and randomly assigned to treatment groups (n=12/group) based on a mean distribution of body weight across groups.
The first animal within a treatment group was given a shock at the expected or
estimated CC50 current. For subsequent animals, the current was lowered or raised depending on the convulsions outcome from the preceding animal in 5 mA intervals.
Data generated from each treatment group were used to calculate the CC50±SEM values for the treatment group.
Test compound effects were also calculated as percentage change in CC50 from the vehicle control group.
Significant difference between drug-treated animals and controls were assessed according to Litchfield and Wilcoxon (1949).

## C=C(C)[C@@H]1CCC(C)=C[C@H]1c1c(O)cc(-c2cnn(C)c2)cc1O [Compound 3]
[1]; Example 3, 200 mg/kg i.p., 120 min post dose
  % change from vehicle: >636%
[1]; Example 3, 200 mg/kg i.p., 120 min post dose, no "+" seen, vehicle CC50 23.5
  CC50 ± SEM: >173 mA
[1]; Example 3, 200 mg/kg i.p., 120 mins before testing
  seizure threshold as compared to vehicle (in words): clear increase in seizure threshold
[2]; 2 mg/kg i.p., N=12
  % change from vehicle: 27%
  CC50 +/− SEM: 30.8 ± 1.0 mA
[2]; 20 mg/kg i.p., N=12
  % change from vehicle: 116%
  CC50 +/− SEM: 52.5 ± 1.3 mA
[2]; 200 mg/kg i.p., N=12
  % change from vehicle: 712%
  CC50 +/− SEM: 197.5 ± 20.4 mA
[2]; 2, 20 and 200 mg/kg i.p.
  effect on MEST across doses (in words): dose-related increase in MEST

## C=C(C)[C@@H]1CCC(C)=C[C@H]1c1c(O)cc(-c2cnn(CC(C)(C)C)c2)cc1O [Compound 1]
[1]; Example 1, 50 mg/kg i.p., 30 min post dose
  % change from vehicle: 388%
[1]; Example 1, 50 mg/kg i.p., 30 min post dose, vehicle CC50 24.5
  CC50 ± SEM: 119.5 mA

## CN1C(=O)CN=C(c2ccccc2)c2cc(Cl)ccc21 [Diazepam, diazepam, reference compound]
[1]; Example 1, 2.5 mg/kg i.p., 30 min post dose
  % change from vehicle: 206%
[1]; Example 2, 2.5 mg/kg i.p., 30 min post dose
  % change from vehicle: 296%
[1]; Example 3, 2.5 mg/kg i.p., 30 min post dose
  % change from vehicle: 98%
[2]; 2.5 mg/kg i.p., N=11
  % change from vehicle: 223%

## C=C(C)[C@@H]1CCC(C)=C[C@H]1c1c(O)cc(-c2cn(C)nn2)cc1O [Compound 2]
[1]; Example 2, 5 mg/kg i.p., 15 min post dose
  % change from vehicle: 26%
[1]; Example 2, 5 mg/kg i.p., 15 min post dose, vehicle CC50 22.5
  CC50 ± SEM: 28.3 +/− 1.1 mA
[1]; Example 2, 50 mg/kg i.p., 30 min post dose
  % change from vehicle: 213%
[1]; Example 2, 50 mg/kg i.p., 30 min post dose, vehicle CC50 22.5
  CC50 ± SEM: 70.5 +/− 5.8 mA
